Data reported in US20150051278A1, “METHOD OF EXTERMINATING HARMFUL INSECT” (KAO CORPORATION, priority 2012, published 2015).

Columns and labels:
Assay type in all cases: in vivo
planthopper = test: Insecticidal test I; details: planthopper on rice seedling, 3 days after spraying
Description: A seedling of rice plant was grown in a 12 cm pot until the plant height reaches 15 cm. Ten individuals of planthopper, which had passed 3 to 5 days after emergence, were applied per one rice plant. The rice plant was trial-cultured for three repetitions. With 1 L of water, an insecticide was mixed in such an amount that the concentration of each of the compounds at the time of spraying was the amount indicated in Table 4, thereby preparing the spray liquid of insecticide. This spray liquid was sprayed on the leaf surface of the seedling of rice plant attached with planthoppers in the application amount indicated in Table 4. After air drying, the seedling of rice plant sprayed with the spray liquid was covered with a wire gauze cylinder. Three days later, the number of surviving insects was measured, and the insect killing rate (indicated as the “insect killing rate I” in Table 4) was calculated by the following equation. It means that the effect of agricultural chemical (insecticidal effect) is high as the value of the insect killing rate is high.
Insect killing rate (%)=(the number of surviving insects in non-treated area−the number of surviving insects in treated area)/the number of surviving insects in non-treated area×100

Kanzawa spider mite = test: Acaricidal test; details: Kanzawa spider mite on kidney bean, 3 days after spraying
Description: A kidney bean was grown in a 12 cm pot until to be a 5-leaf stage. Thirty individuals of Kanzawa spider mite per one plant were implanted for three repetitions. To 1 L of water, the insecticide was mixed such that the concentration of each of the compounds at the time of spraying becomes the amount indicated in Table 4 and Table 6, thereby preparing the spray liquid of insecticide. This spray liquid was sprayed on the leaf surface of the kidney bean attached with Kanzawa spider mites in the application amount indicated in Table 4 and Table 6. After air drying, the kidney bean sprayed with the spray liquid was covered with a wire gauze cylinder. Three days later, the number of surviving mites was measured, and the mite killing rate was calculated by the following equation. It means that the effect of agricultural chemical (acaricidal effect) is high as the value of the mite killing rate is high. Mite killing rate (%)=(the number of surviving mites in non-treated area−the number of surviving mites in treated area)/the number of surviving mites in non-treated area×100

cotton aphid = test: Insecticidal test II; details: cotton aphid on cabbage leaf, 1 day after spraying
Description: A cabbage seedling was grown in a 12 cm pot until to be a ten-leaf stage. The leaf of cabbage was cut and placed in a petri dish with a diameter of 9 cm, and 15 individuals of cotton aphid were trial cultured for three repetitions. With 1 L of water, the insecticide was mixed in such an amount that the concentration of each of the compounds at the time of spraying was the amount indicated in Table 4, thereby preparing the spray liquid of insecticide. This spray liquid was sprayed to the leaf surface of the cabbage attached with cotton aphids in the application amount indicated in Table 4. After air drying, the petri dish was covered with a lid, and an oxygen permeable seal was sealed around the petri dish so as to prevent the escape of the aphid therefrom. One day later, the number of surviving insects was measured, and the insect killing rate (indicated as the “insect killing rate II” in Table 4) was calculated by the following equation. It means that the effect of agricultural chemical (insecticidal effect) is high as the value of the insect killing rate is high. Insect killing rate (%)=(the number of surviving insects in non-treated area−the number of surviving insects in treated area)/the number of surviving insects in non-treated area×100

[1] = application amount 100 L/10 a, (A)+(B) concentration 1000 ppm

Substance	Insect killing rate I (planthopper; [1]) [%]	Mite killing rate (Kanzawa spider mite; [1]) [%]	Insect killing rate II (cotton aphid; [1]) [%]	Insect killing rate I (planthopper; 100 L/10 a, 2000 ppm) [%]	Mite killing rate (Kanzawa spider mite; 100 L/10 a, 2000 ppm) [%]	Insect killing rate II (cotton aphid; 100 L/10 a, 2000 ppm) [%]
Monocapric acid monoglycerine [compound 7]	46	40	57			
Octyl alcohol [compound 22]				24	22	34
